Columns and labels:
[1] = Metabolic stability in Sprague-Dawley rat bile assessed as drug remaining; assay type: ADME
[2] = Metabolic stability in Sprague-Dawley rat liver microsomes assessed as half life; assay type: ADME, Microsome
[3] = Metabolic stability in Sprague-Dawley rat assessed as hepatic extraction ratio; assay type: ADME, tissue-based; conditions: liver
[4] = system: Liver microsomes; experiment: Unbound intrinsic clearance in human liver microsomes at 1 uM; assay type: ADME, Microsome
[5] = system: Canis familiaris; experiment: Unbound plasma clearance in Beagle dog at 0.5 mg/kg, iv; assay type: ADME, organism-based, Canis lupus familiaris; set-up: dose 0.5 mg/kg, route intravenous; conditions: in vivo
[6] = Protein binding in Beagle dog plasma at 1 ug/ml; assay type: ADME, cell-free, Canis lupus familiaris; conditions: read-out: PPB (converted)
[7] = Metabolic stability in human liver microsomes assessed as half life at 1 uM; assay type: ADME, Microsome
[8] = Elimination half life in Beagle dog at 0.5 mg/kg, iv; assay type: ADME, organism-based, Canis lupus familiaris; set-up: dose 0.5 mg/kg, route intravenous; conditions: in vivo
[9] = Oral absorption in Beagle dog at 2 mg/kg, po; assay type: ADME, organism-based, Canis lupus familiaris; set-up: dose 2 mg/kg, route oral; conditions: in vivo, read-out: Fabs
[10] = Fraction unbound in Beagle dog liver microsomes at 1 uM; assay type: ADME, Canis lupus familiaris, Microsome
[11] = Volume of distribution in Beagle dog at 0.5 mg/kg, iv; assay type: ADME, organism-based, Canis lupus familiaris; set-up: dose 0.5 mg/kg, route intravenous; conditions: in vivo
[12] = system: Liver; experiment: Unbound intrinsic clearance in Beagle dog liver microsomes at 1 uM; assay type: ADME, Canis lupus familiaris, Microsome
[13] = Lipophilicity, log D in 0.1M potassium phosphate buffer at pH 7.4; assay type: physicochemical
[14] = Plasma clearance in Beagle dog at 0.5 mg/kg, iv; assay type: ADME, organism-based, Canis lupus familiaris; set-up: dose 0.5 mg/kg, route intravenous
[15] = Metabolic stability in Beagle dog liver microsomes assessed as half life at 1 uM; assay type: ADME, Canis lupus familiaris, Microsome
[16] = Oral bioavailability in Beagle dog at 2 mg/kg; assay type: ADME, organism-based, Canis lupus familiaris; conditions: in vivo
[17] = system: Canis familiaris; experiment: Unbound volume of distribution in Beagle dog at 0.5 mg/kg, iv; assay type: ADME, organism-based, Canis lupus familiaris; set-up: dose 0.5 mg/kg, route intravenous; conditions: in vivo
[18] = Dissociation constant, pKa of the compound; assay type: physicochemical
[19] = Fraction unbound in human liver microsomes at 1 uM; assay type: ADME, Microsome
[20] = system: Hepatocyte; experiment: Drug uptake in Sprague-Dawley rat hepatocytes assessed per 10^6 cells; assay type: ADME, cell-based
[21] = system: Rattus norvegicus; experiment: Unbound plasma clearance in Sprague-Dawley rat at 3 mg/kg, iv; assay type: ADME, organism-based; set-up: dose 3 mg/kg, route intravenous; conditions: in vivo
[22] = Volume of distribution in Sprague-Dawley rat at 3 mg/kg, iv; assay type: ADME, organism-based; set-up: dose 3 mg/kg, route intravenous; conditions: in vivo
[23] = species on record: Homo sapiens; experiment: Protein binding in human plasma at 1 ug/ml; conditions: read-out: PPB (converted)
[24] = Protein binding in Sprague-Dawley rat plasma at 1 ug/ml; assay type: ADME, cell-free; conditions: read-out: PPB (converted)
[25] = system: Rattus norvegicus; experiment: Unbound volume of distribution in Sprague-Dawley rat at 3 mg/kg, iv; assay type: ADME, organism-based; set-up: dose 3 mg/kg, route intravenous; conditions: in vivo
[26] = Elimination half life in Sprague-Dawley rat at 3 mg/kg, iv; assay type: ADME, organism-based; set-up: dose 3 mg/kg, route intravenous; conditions: in vivo
[27] = Drug uptake in Sprague-Dawley rat hepatocytes; assay type: ADME, cell-based, Hepatocyte
[28] = Plasma clearance in Sprague-Dawley rat at 3 mg/kg, iv; assay type: ADME, organism-based; set-up: dose 3 mg/kg, route intravenous
[29] = Oral absorption in Beagle dog at 0.5 mg/kg, po; assay type: ADME, organism-based, Canis lupus familiaris; set-up: dose 0.5 mg/kg, route oral; conditions: in vivo, read-out: Fabs
[30] = Oral bioavailability in Beagle dog at 0.5 mg/kg; assay type: ADME, organism-based, Canis lupus familiaris; conditions: in vivo
[31] = Elimination half life in human at 0.86 mg/kg, po; assay type: ADME, organism-based; set-up: dose 0.86 mg/kg, route oral; conditions: in vivo
[32] = Elimination half life in Sprague-Dawley rat at 0.5 mg/kg, iv; assay type: ADME, organism-based; set-up: dose 0.5 mg/kg, route intravenous; conditions: in vivo
[33] = Oral bioavailability in Beagle dog at 4 mg/kg; assay type: ADME, organism-based, Canis lupus familiaris; conditions: in vivo
[34] = Oral absorption in Beagle dog at 4 mg/kg, po; assay type: ADME, organism-based, Canis lupus familiaris; set-up: dose 4 mg/kg, route oral; conditions: in vivo, read-out: Fabs
[35] = Oral bioavailability in Sprague-Dawley rat at 4 mg/kg; assay type: ADME, organism-based; conditions: in vivo
[36] = Tmax in human at 0.86 mg/kg, po; assay type: ADME, organism-based; set-up: dose 0.86 mg/kg, route oral; conditions: in vivo
[37] = Elimination half life in Sprague-Dawley rat at 4 mg/kg, po; assay type: ADME, organism-based; set-up: dose 4 mg/kg, route oral; conditions: in vivo
[38] = Volume of distribution in Sprague-Dawley rat at 0.5 mg/kg, iv; assay type: ADME, organism-based; set-up: dose 0.5 mg/kg, route intravenous; conditions: in vivo
[39] = Cmax in human at 0.86 mg/kg, po; assay type: ADME, organism-based; set-up: dose 0.86 mg/kg, route oral; conditions: in vivo
[40] = Plasma clearance in Sprague-Dawley rat at 0.5 mg/kg, iv; assay type: ADME, organism-based; set-up: dose 0.5 mg/kg, route intravenous
[41] = system: Rattus norvegicus; experiment: Unbound volume of distribution in Sprague-Dawley rat at 0.5 mg/kg, iv; assay type: ADME, organism-based; set-up: dose 0.5 mg/kg, route intravenous; conditions: in vivo
[42] = Cmax in Sprague-Dawley rat at 4 mg/kg, po; assay type: ADME, organism-based; set-up: dose 4 mg/kg, route oral; conditions: in vivo
[43] = system: Rattus norvegicus; experiment: Unbound plasma clearance in Sprague-Dawley rat at 0.5 mg/kg, iv; assay type: ADME, organism-based; set-up: dose 0.5 mg/kg, route intravenous; conditions: in vivo
[44] = Tmax in Sprague-Dawley rat at 4 mg/kg, po; assay type: ADME, organism-based; set-up: dose 4 mg/kg, route oral; conditions: in vivo

SMILES	Stability [1]	half-life [2]	hepatic extraction ratio [3]	CL [4]	CL [5]	fraction unbound at 1 ug/ml [6]	half-life at 1 µM [7]	half-life [8]	fraction unbound at 1 µM [10]	Vd [11]	CL [12]	logD [13]	clearance [14]	half-life at 1 µM [15]	Vd [17]	pKa [18]	fraction unbound at 1 µM [19]	fraction unbound at 1 ug/ml [23]	fraction unbound at 1 ug/ml [24]	Fa [29]	also measured
COc1cc2nc(N3CCCN(C(=O)N4CC(O)C(O)C4)CC3)nc(N3CC4C(CC(=O)OC(C)(C)C)C4C3)c2cc1OC (stereo not drawn)	90%	> 2 h	0.75																		
COc1cc2nc(N3CCCN(C(=O)N4CCOCC4)CC3)nc(N)c2cc1-c1ccccn1				96 mL/min/kg	200 mL/min/kg	0.22	0.0833 h	2.3 h	0.791	4.3 L/kg	162 mL/min/kg	2.1	23 mL/min/kg	0.233 h	20 L/kg	6.6	0.637				Fa [9]: 65%; bioavailability [16]: 35%
COc1cc2c(cc1OC)CN(c1nc(N3CCCN(C(=O)N4CC(O)C(O)C4)CC3)nc3cc(OC)c(OC)cc13)CC2 (stereo not drawn)	90%	> 2 h	0.7		470 mL/min/kg	0.1		2.4 h		10 L/kg		4	47 mL/min/kg		100 L/kg	6.2		0.03	0.05		Vmax [20]: 481 pmol/min; CL [21]: 2700 mL/min/kg; Vd [22]: 9.3 L/kg; Vd [25]: 186 L/kg; half-life [26]: 1.4 h; Km [27]: 6.5 µM; clearance [28]: 135 mL/min/kg
COc1cc2nc(N3CCc4ncccc4C3)nc(N)c2c(-c2ncccn2)c1OC				12 mL/min/kg	450 mL/min/kg	0.45	0.517 h	1.5 h	1	5.1 L/kg	50 mL/min/kg	2.1	40 mL/min/kg	0.6 h	11 L/kg	6.5	0.823			100%	bioavailability [30]: 28%
COc1cc2nc(N3CCCN(C(=O)N4CCOCC4)CC3)cc(N)c2c(-c2ncco2)c1OC						0.22	0.317 h	1.9 h	0.962	1 L/kg		1.1	5.9 mL/min/kg	1.33 h	4.5 L/kg	7.5	0.745			86%	bioavailability [30]: 76%
COc1cc2nc(N3CCCN(C(=O)N4CCOCC4)CC3)cc(N)c2c(-c2ccc(F)cc2)c1OC				154 mL/min/kg	536 mL/min/kg	0.04	0.1 h	6.3 h	0.602	4.8 L/kg	100 mL/min/kg	1.8	15 mL/min/kg	0.5 h	96 L/kg	8.5	0.331	0.06	0.08		half-life [31]: 12 h; half-life [32]: 1 h; bioavailability [33]: 71%; Fa [34]: 100%; bioavailability [35]: 11%; Tmax [36]: 0.7 h; half-life [37]: 2.8 h; Vd [38]: 5.6 L/kg; Cmax [39]: 63 ng/mL; clearance [40]: 91 mL/min/kg; Vd [41]: 70 L/kg; Cmax [42]: 14 ng/mL; CL [43]: 61250 mL/min/kg; Tmax [44]: 4 h

From ChEMBL document CHEMBL1142226, “Impact of physicochemical and structural properties on the pharmacokinetics of a series of alpha1L-adrenoceptor antagonists” (Drug Metab Dispos, 2007)
